These results are taken from patent US10414774B2, “Compound useful for altering the levels of bile acids for the treatment of diabetes and cardiometabolc disease” (Merck Sharp & Dohme Corp., priority 2016, dated 2019).

Molecules are shown by their SMILES. Read-outs that look alike come from different tables or passages of the source.

This experiment deals with T1, Human CYP8B1 (Homo sapiens, UniProt Q9UNU6).
T1 sequence (Q9UNU6 1-501): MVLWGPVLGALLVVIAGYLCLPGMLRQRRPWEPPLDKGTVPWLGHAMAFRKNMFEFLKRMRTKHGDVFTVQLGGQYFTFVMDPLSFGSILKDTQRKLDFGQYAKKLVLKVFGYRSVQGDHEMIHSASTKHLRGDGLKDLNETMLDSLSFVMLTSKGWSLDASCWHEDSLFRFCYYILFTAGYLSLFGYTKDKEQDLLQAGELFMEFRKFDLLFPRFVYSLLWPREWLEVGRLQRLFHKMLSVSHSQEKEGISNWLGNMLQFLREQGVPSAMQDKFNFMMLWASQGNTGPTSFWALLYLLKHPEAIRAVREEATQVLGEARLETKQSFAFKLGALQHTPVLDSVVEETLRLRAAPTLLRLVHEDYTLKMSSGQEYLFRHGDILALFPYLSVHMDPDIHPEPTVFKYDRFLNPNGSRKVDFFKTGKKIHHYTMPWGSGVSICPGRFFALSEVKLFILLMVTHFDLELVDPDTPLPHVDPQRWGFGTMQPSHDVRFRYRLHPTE
The experiment can be described thus: Human CYP8B1 Liver Microsome Assay. Particulars: substrate 7a-hydroxy-4-cholesten-3-one, NADPH, RapidFire MS detection of 7α,12α-dihydroxy-4-cholesten-3-one.

The mark [1] stands for this setting: Human CYP8B1 IC50, human liver microsomes.

For `CO[C@@H]1CN(c2c(C#N)cnc3ccc(Cl)cc23)CC[C@@H]1C(=O)N1CCn2c(nnc2C(F)(F)F)C1` [Example 72a, 6-chloro-4-[(3S,4S)-3-methoxy-4-{[3-(trifluoromethyl)-5,6-dihydro[1,2,4]triazolo[4,3-a]pyrazin-7(8H)-yl]carbonyl}piperidin-1-yl]quinoline-3-carbonitrile], under setting [1], the IC50 – broadly, the concentration needed to halve the response being measured – is 22 nM.

For `Cc1nc2ccc(Cl)cc2c(N2CC[C@H](C(=O)N3CCc4sc(C(F)(F)F)nc4C3)[C@H](C)C2)c1C#N` [Example 98, 6-chloro-2-methyl-4-[(3S,4S)-3-methyl-4-{[2-(trifluoromethyl)-6,7-dihydro[1,3]thiazolo[4,5-c]pyridin-5(4H)-yl]carbonyl}piperidin-1-yl]quinoline-3-carbonitrile], half-maximal inhibition under setting [1] (IC50) required 19 nM.

Under setting [1], `N#Cc1cnc2ccc(Cl)cc2c1N1CCC(C(=O)N2CCc3c(C4CC4)n[nH]c3C2)CC1` [Example 107, 6-chloro-4-{4-[(3-cyclopropyl-1,4,5,7-tetrahydro-6H-pyrazolo[3,4-c]pyridin-6-yl)carbonyl]piperidin-1-yl}quinoline-3-carbonitrile] gave an IC50 of 5.6 nM.

In the case of `CO[C@@H]1CN(c2c(C#N)cnc3ccc(Cl)cc23)CC[C@H]1C(=O)N1CCn2c(nnc2C(F)(F)F)C1` [Example 72b, 6-chloro-4-[(3S,4R)-3-methoxy-4-{[3-(trifluoromethyl)-5,6-dihydro[1,2,4]triazolo[4,3-a]pyrazin-7(8H)-yl]carbonyl}piperidin-1-yl]quinoline-3-carbonitrile], under setting [1], the IC50 was 441 nM.

In the case of `N#Cc1cnc2ccc(Cl)cc2c1N1CCC(C(=O)N2CCc3c(C(F)(F)F)n[nH]c3C2)CC1` [Example 111, 6-chloro-4-(4-{[3-(trfluoromethyl)-1,4,5,7-tetrahydro-6H-pyrazolo[3,4-c]pyridin-6-yl]carbonyl}piperidin-1-yl)quinoline-3-carbonitrile], under setting [1], the IC50 worked out at 90 nM.

Under setting [1], `N#Cc1cnc2ccc(Cl)cc2c1N1CCC(C(=O)N2CCc3cn[nH]c3C2)CC1` [Example 108, 6-chloro-4-[4-(1,4,5,7-tetrahydro-6H-pyrazolo[3,4-c]pyridin-6-ylcarbonyl)piperidin-1-yl]quinoline-3-carbonitrile] showed a 50% inhibitory concentration (IC50) of 142 nM.

For `C[C@@H]1CN(c2c(C#N)cnc3ccc(C(F)(F)F)cc23)CC[C@@H]1C(=O)N1CCn2c(nnc2C(F)(F)F)C1` (single isomer, unassigned) [Example 119a], the IC50 (read-out: Human CYP8B1 IC50, human liver microsomes) was 41.4 nM.

Turning to `N#Cc1cnc2cc(OCC3CC3)ccc2c1N1CCC(C(=O)N2CCn3c(nnc3C(F)(F)F)C2)CC1` [Example 68, 7-(cyclopropylmethoxy)-4-(4-{[3-(trifluoromethyl)-5,6-dihydro[1,2,4]triazolo[4,3-a]pyrazin-7(8H)-yl]carbonyl}piperidin-1-yl)quinoline-3-carbonitrile], the IC50 under setting [1] is 0.43 nM.

Under setting [1], `COc1ccc2c(N3C[C@@H](C)N(C(=O)N4CCn5c(nnc5C(F)(F)F)C4)[C@@H](C)C3)c(C#N)cnc2c1` [Example 83b, 4-((3S,5R)-3,5-dimethyl-4-(3-(trifluoromethyl)-5,6,7,8-tetrahydro-[1,2,4]triazolo[4,3-a]pyrazine-7-carbonyl)piperazin-1-yl)-7-methoxyquinoline-3-carbonitrile] gave an IC50 of 987 nM.

For the molecule `CC1CN(c2c(C#N)cnc3ccc(C(F)(F)F)cc23)CCC1C(=O)N1CCn2c(nnc2C(F)(F)F)C1` (centres unmarked) [Example 119, 4-(3-methyl-4-{[3-(trifluoromethyl)-5,6-dihydro[1,2,4]triazolo[4,3-a]pyrazin-7(8H)-yl]carbonyl}piperidin-1-yl)-6-(trifluoromethyl)quinoline-3-carbonitrile], under setting [1], inhibition was half-maximal at 1.2 nM (IC50).

In turn, `COc1ccc2nc(C)c(C#N)c(N3CC[C@H](C(=O)N4CCn5c(nnc5C(F)(F)F)C4)[C@H](C)C3)c2c1` [Example 32, 6-methoxy-2-methyl-4-[(3S,4S)-3-methyl-4-{[3-(trifluoromethyl)-5,6-dihydro[1,2,4]triazolo[4,3-a]pyrazin-7(8H)-yl]carbonyl}piperidin-1-yl]quinoline-3-carbonitrile] registered an IC50 under setting [1] of 2.9 nM.

In the case of `C[C@@H]1CN(c2c(C#N)c[n+]([O-])c3ccc(Cl)cc23)CC[C@@H]1C(=O)N1CCn2c(nnc2C(F)(F)F)C1` [Example 123, 6-chloro-3-cyano-4-((3S,4S)-3-methyl-4-(3-(trifluoromethyl)-5,6,7,8-tetrahydro-[1,2,4]triazolo[4,3-a]pyrazine-7-carbonyl)piperidin-1-yl)quinoline 1-oxide], the IC50 under setting [1] came to 1.9 nM.

In the case of `COc1ccc2c(N3C[C@@H](C)N(C(=O)N4CCn5c(nnc5C(F)(F)F)C4)[C@H](C)C3)c(C#N)cnc2c1` [Example 83a, 4-((3R,5R)-3,5-dimethyl-4-(3-(trifluoromethyl)-5,6,7,8-tetrahydro-[1,2,4]triazolo[4,3-a]pyrazine-7-carbonyl)piperazin-1-yl)-7-methoxyquinoline-3-carbonitrile], the IC50 under setting [1] is 11.3 nM.

Under setting [1], `N#Cc1cnc2ccc(Cl)cc2c1N1CC[C@@H](C(=O)N2CCn3c(nnc3C(F)(F)F)C2)[C@@H](C2CC2)C1` [Example 76a, 6-chloro-4-[(3R,4R)-3-cyclopropyl-4-{[3-(trifluoromethyl)-5,6-dihydro[1,2,4]triazolo[4,3-a]pyrazin-7(8H)-yl]carbonyl}piperidin-1-yl]quinoline-3-carbonitrile] displayed an IC50 of 1320 nM.

The molecule `N#Cc1cnc2ccc(Cl)cc2c1N1CCN(C(=O)N2CCn3c(nnc3C(F)(F)F)C2)CC1` [Example 129, 6-chloro-4-(4-{[3-(trifluoromethyl)-5,6-dihydro[1,2,4]triazolo[4,3-a]pyrazin-7(8H)-yl]carbonyl}piperazin-1-yl)quinoline-3-carbonitrile] gave an IC50 under setting [1] of 386 nM.

Molecule `CC(C)Oc1ccc2c(N3CC[C@H](C(=O)N4CCn5c(nnc5C(F)(F)F)C4)[C@H](C)C3)c(C#N)cnc2c1F` [Example 37, 8-fluoro-4-[(3S,4S)-3-methyl-4-{[3-(trifluoromethyl)-5,6-dihydro[1,2,4]triazolo[4,3-a]pyrazin-7(8H)-yl]carbonyl}piperidin-1-yl]-7-(propan-2-yloxy)quinoline-3-carbonitrile] yielded an IC50 under setting [1] of 0.54 nM.

Turning to `COC(=O)c1ccc2nc(C(=O)OC)c(C#N)c(N3CC[C@H](C(=O)N4CCn5c(nnc5C(F)(F)F)C4)[C@H](C)C3)c2c1` [Example 60, dimethyl 3-cyano-4-[(3S,4S)-3-methyl-4-{[3-(trifluoromethyl)-5,6-dihydro[1,2,4]triazolo[4,3-a]pyrazin-7(8H)-yl]carbonyl}piperidin-1-yl]quinoline-2,6-dicarboxylate], under setting [1], half-maximal inhibition (IC50) required 270 nM.

`CC[C@@H]1CN(c2c(C#N)cnc3ccc(Cl)cc23)CC[C@@H]1C(=O)N1CCn2c(nnc2C(F)(F)F)C1` [Example 75b, 6-chloro-4-[(3S,4S)-3-ethyl-4-{[3-(trifluoromethyl)-5,6-dihydro[1,2,4]triazolo[4,3-a]pyrazin-7(8H)-yl]carbonyl}piperidin-1-yl]quinoline-3-carbonitrile] showed a concentration for half-maximal inhibition (IC50) under setting [1] of 2.8 nM.

`Cc1nc2c(F)cc(F)cc2c(N2CC[C@H](C(=O)N3CCn4c(nnc4C(F)(F)F)C3)[C@H](C)C2)c1C#N` [Example 10, 6,8-difluoro-2-methyl-4-[(3S,4S)-3-methyl-4-{[3-(trifluoromethyl)-5,6-dihydro[1,2,4]triazolo[4,3-a]pyrazin-7(8H)-yl]carbonyl}piperidin-1-yl]quinoline-3-carbonitrile] registered an IC50 under setting [1] of 2.8 nM.

`Cc1nc2ccc(Cl)cc2c(N2CC[C@H](C(=O)N3CCn4c(nnc4C(F)(F)F)C3)[C@H](C)C2)c1C#N` [Example 122, 6-chloro-2-methyl-4-((3S,4S)-3-methyl-4-(3-(trifluoromethyl)-5,6,7,8-tetrahydro-[1,2,4]triazolo[4,3-a]pyrazine-7-carbonyl)piperidin-1-yl)quinoline-3-carbonitrile]: the 50% inhibitory concentration (IC50) under setting [1] was 0.5 nM.

`Cc1nc2ccc(C(F)F)cc2c(N2CCC(C(=O)N3CCn4c(nnc4C(F)(F)F)C3)CC2)c1C#N` [Example 55, 6-(difluoromethyl)-2-methyl-4-(4-(3-(trifluoromethyl)-5,6,7,8-tetrahydro-[1,2,4]triazolo[4,3-a]pyrazine-7-carbonyl)piperidin-1-yl)quinoline-3-carbonitrile] came in with a 50% inhibitory concentration (IC50) under setting [1] of 78 nM.

`[2H]C([2H])([2H])Oc1ccc2c(N3CC[C@H](C(=O)N4CCn5c(nnc5C(F)(F)F)C4)[C@H](C)C3)c(C#N)cnc2c1` [Example 80, 7-[(^2H3)methyloxy]-4-[(3S,4S)-3-methyl-4-{[3-(trifluoromethyl)-5,6-dihydro[1,2,4]triazolo[4,3-a]pyrazin-7(8H)-yl]carbonyl}piperidin-1-yl]quinoline-3-carbonitrile] returned an IC50 under setting [1] of 0.35 nM.

The molecule `N#Cc1cnc2ccc(Cl)cc2c1N1CCC(C(=O)N2CCn3c(nnc3C(F)(F)F)C2)C(C(F)(F)F)C1` (centres unmarked) [Example 118, 6-chloro-4-[3-(trifluoromethyl)-4-{[3-(trifluoromethyl)-5,6-dihydro[1,2,4]triazolo[4,3-a]pyrazin-7(8H)-yl]carbonyl}piperidin-1-yl]quinoline-3-carbonitrile] registered an IC50 under setting [1] of 2.1 nM.
